Counter-ions that a name gives are not always drawn. Like-named read-outs stand apart in the source and are kept apart here.
Legend:
[1] = tested on: CT26 cells; experiment: Inhibition of CT26 cell proliferation (CellTiter-Glo); format: cell-based, mouse; settings: for IC50: read-out: CT-26 activity; for inhibitory ability on growth of CT26 tumor cells in vitro (in words): superior to ADU-S100
Procedure: CT26 cells are a mouse colorectal cancer cell line. In this experiment, CellTiter-Glo Luminescence Cell Viability Assay kit from Promega was used to assess the inhibitory activity of the compounds on CT26 cell proliferation.
When CT26 cells (ATCC #CRL-2638) were revived, the cryovial was rapid shaken in a 37°C water bath to thaw with 1 min. The thawed cell suspension was mixed well with DMEM medium (GE Company, Cat. No. #SH30243.01) containing 10% FBS (GIBCO, Cat. No. #10099-141), centrifuged at 1000 rpm for 5 min, and the supernatant was discarded. The cell pellet was resuspended in 5 mL of complete medium (DMEM medium containing 10% FBS), placed in a cell culture flask with a bottom area of 25 cm^2, and cultured in a cell incubator at 37°C, 5% CO2, and 95% humidity. Passage was performed when the confluence rate of cells reached 70%~80%. Referring to the cell passage method at plating, all cells in the flask were transferred to a 15 mL centrifuge tube, centrifuged at 1000 rpm for 5 minutes, and the supernatant was discarded. The cell pellet was resuspended in 5 mL of new complete medium, 1 mL was placed in a cell culture flask with a bottom area of 25 cm^2, and 4 mL of fresh complete medium was added to continue the culture. Plating was performed when the cell confluence rate of cells reached 70% to 80% again. Referring to the cell passage method at plating, 1/5 of the cell suspension was maintained and the remaining 4/5 of the cell suspension was placed in a 15 mL centrifuge tube. The cells were centrifuged, the old medium was discarded, the cells was washed once with DMEM medium (without serum), and centrifuged to remove the supernatant. Cells were resuspended with DMEM medium (without serum). […]. A cell suspension at a density of 1.1 x 10^4 viable cells/mL was prepared using DMEM medium (without serum) and 90 µL of the cell suspension was added to 96-well clear flat-bottom black-walled cell culture plate wells (Corning, Cat. No. #3603) to yield a cell density of 1000 viable cells/well in the plate. A control group without cells, without compounds, and with complete medium only (i.e., culture medium control) was set up, and a control group without compounds and with cells (i.e., cell control) was set up. The plates were incubated overnight in a cell incubator.
A DMSO stock solution of 10 mM compound was first serially diluted at a 3.16-fold dilution ratio with DMSO (Sigma, Cat. No. #D2650) to a ninth concentration and a tenth concentration of DMSO control without compound was set. DMSO solutions containing different concentrations of the compound were then diluted a 10-fold dilution ratio with PBS (Solarbio company, Cat. No. #P1020) to achieve a DMSO content of 10% in each concentration of the compound solution. Finally, 10 µL of the above solution was added to the corresponding cell culture plate to achieve a starting concentration of 100 µM compound, a 3.16-fold dilution ratio of adjacent concentrations, and a DMSO content of 1% in the cell culture plate. The plates were maintained in a cell incubator for an additional 120 hours.
After 120 hours, the CellTiter-Glo reagent (Promega, Cat. No. #G7572) was thawed and the plate was equilibrated at room temperature for 30 min. Then, 100 µL CellTiter-Glo was added to each well of the plate and shaken on an orbital shaker for 5 min to fully lyse the cells. The plate was placed at room temperature for 20 min to stabilize the cold light signal, and the cold light value of each well was scanned with a multifunctional microplate reader (Molecular Devices, Spectramax M3) at full wavelength.
The compound of the present invention and ADU-S100 (MCE, Cat. No. #HY12885A) were used as controls: Clofarabine (Wuhu Huaren Technology, Cat. No. #HR-00701002), Cladribine (CSNpharm, Cat. No. #CSN10004), Gemcitabine Hydrochloride (Shaoyuan, Cat. No. #SY014538), Gemcitabine Prodrug LY2334737 (home-made). […]

[2] = tested on: THP-1 cells; experiment: Activation of IFN-β secretion by THP-1 cells (IFN-beta ELISA); format: cell-based, human; settings: for STING agonist activity (in words): EC50 stronger than 2',3'-cGAMP, comparable to ADU-S100; for EC50: read-out: THP-1 activity
[3] = tested on: A375; experiment: Inhibition of tumor cell line proliferation (Table 3), A375; format: cell-based; settings: A-375; A375, Human melanoma cells
[4] = tested on: CT26 cells; experiment: CT26 syngeneic mouse bilateral transplanted tumor model; format: in vivo, BALB/c mice; settings: for growth inhibition rates of left tumors: left (untreated) tumor, 50 µg compound/mouse (2.5 mg/kg) intratumorally into right flank on days 0 and 4, day 13 after treatment; for tumor growth inhibition rate: right (treated) tumor, 50 µg compound/mouse (2.5 mg/kg) intratumorally on days 0 and 4, 13 days post treatment
Procedure: When tumors grew to an average volume of 100 mm^3, treatments were randomized and started based on tumor size and mouse body weight. The first day of dosing was Day 0. Two doses were administered, 50 µg compound/mouse (i.e., 2.5 mg/kg) was injected intratumorally into the right flank on days 0 and 4, and the same volume of PBS (Hyclone Company, Cat. No. #SH30258.01) was used as a control. The left tumor was left untreated. Control mice were sacrificed after 13 days of dosing and treated mice were sacrificed 21 days later. During the experiment, the tumor volume and body weight were measured three times a week on the left and right sides, and the tumor volume was calculated as V = D × d × d/2 (wherein D represents the long diameter of the tumor and d represents the short diameter of the tumor).

[5] = tested on: H22; experiment: Inhibition of tumor cell line proliferation (Table 3), H22; format: cell-based; settings: H22, Mouse hepatoma cells
[6] = tested on: SK-MEL5; experiment: Inhibition of tumor cell line proliferation (Table 3), SK-MEL5; format: cell-based; settings: SK-MEL-5; SK-MEL5, Human melanoma cells
[7] = tested on: 4T1; experiment: Inhibition of tumor cell line proliferation (Table 3), 4T1; format: cell-based; settings: 4T1, Mouse breast cancer cells
[8] = tested on: FaDu; experiment: Inhibition of tumor cell line proliferation (Table 3), FaDu; format: cell-based; settings: Human pharyngeal squamous carcinoma cell
[9] = tested on: A20; experiment: Inhibition of tumor cell line proliferation (Table 3), A20; format: cell-based; settings: A20, Mouse B lymphoma cells
[10] = tested on: B16F10; experiment: Inhibition of tumor cell line proliferation (Table 3), B16F10; format: cell-based; settings: B16-F10; B16F10, Mouse melanoma cells
[11] = tested on: Daudi; experiment: Inhibition of tumor cell line proliferation (Table 3), Daudi; format: cell-based; settings: Human Burkitt's lymphoma cells
[12] = tested on: MC38; experiment: Inhibition of tumor cell line proliferation (Table 3), MC38; format: cell-based; settings: MC-38; MC38, Mouse colon cancer cells
[13] = Mus musculus, CT26, 120 hours incubation, CellTiter-Glo
[14] = IFN-β secretion, 24 hours incubation, ELISA

Row | Compound | IC50 ([1]; Mus musculus, CT26, 120 h) [µM] | inhibitory ability on growth of CT26 tumor cells in vitro (in words) [1] | STING agonist activity (in words) [2] | EC50 ([2]; Homo sapiens, THP-1, 24 h) [µM] | growth inhibition rates of left tumors [4] [%] | other results
1 | CNc1nc(N)c2ncn([C@@H]3O[C@@H]4CO[P@@](=O)(S)O[C@@H]5[C@H](O)[C@@H](CO[P@@](=O)(S)O[C@H]4[C@@H]3F)O[C@H]5n3cnc4c(=O)[nH]c(N)nc43)c2n1 [CDN-8, (2',3')-cyclo-(Rp,Rp) - [2'-O-thiophosphodiester-guanosine]-[3'-O-thiophosphodiester-2-methylamino-2'-deoxy-2'-fluoro-beta-adenosine] diammonium salt] | 1 to 10 | particularly significant inhibitory ability | significant STING agonist activity | 1 to 10 |  | 
2 | Nc1ncnc2c1ncn2[C@@H]1O[C@@H]2CO[P@@](=O)(S)O[C@@H]3[C@H](O)[C@@H](CO[P@@](=O)(S)O[C@H]2[C@H]1O)O[C@H]3n1cnc2c(N)ncnc21 [ADU-S100, reference compound] | > 10 |  |  | 1 to 10 | 64.2 | IC50 [3]: > 10 µM; tumor growth inhibition rate [4]: 99.1%; IC50 [5]: > 10 µM; IC50 [6]: > 10 µM; IC50 [7]: > 10 µM; IC50 [8]: > 10 µM; IC50 [9]: 5.3 µM; IC50 [10]: > 10 µM; IC50 [11]: > 10 µM; IC50 [12]: > 10 µM
3 | Nc1nc2c(ncn2C2OC3COP(=O)(S)OC4C(COP(=O)(S)OC2C3O)OC(n2cnc3c(N)ncnc32)C4F)c(=O)[nH]1 (stereo not shown) [CDN-11] |  |  | significant STING agonist activity | 1 to 10 |  | 
4 | Nc1ccn([C@@H]2O[C@H](CO)[C@@H](O)C2(F)F)c(=O)n1 [Gemcitabine, Gemcitabine Hydrochloride, reference compound] |  |  |  |  |  | IC50 [1, 13]: < 1 µM
5 | N.N.Nc1nc2c(ncn2C2OC3COP(=O)(S)OC4C(COP(=O)(S)OC2C3O)OC(n2cnc3c(N)nc(F)nc32)C4O)c(=O)[nH]1 (stereo not shown) [CDN-2, (2',3')-cyclo-(Rp,Rp)-[2'-O-thiophosphodiester-guanosine]-[3'-O-thiophosphodiester-2-fluoro-adenosine]diammonium salt] |  | particularly significant inhibitory ability | significant STING agonist activity |  |  | EC50 [2, 14]: 1 to 10 µM
6 | Nc1nc2c(ncn2C2OC3COP(=O)(S)OC4CC(n5cnc6c(N)ncnc65)OC4COP(=O)(S)OC3C2O)c(=O)[nH]1 (stereo not shown) [CDN-12] |  |  | significant STING agonist activity | 1 to 10 |  | 
7 | Nc1nc2c(ncn2[C@@H]2O[C@@H]3CO[P@](=O)(S)O[C@H]4[C@H](F)[C@H](n5cnc6c(N)nc(Cl)nc65)O[C@@H]4CO[P@@](=O)(S)O[C@@H]2[C@@H]3O)c(=O)[nH]1 [CDN-7, (2',3')-cyclo-(Rp,Sp)-[2'-O-thiophosphodiester-guanosine]-[3'-O-thiophosphodiester-2-chloro-2'-deoxy-2'-fluoro-beta-adenosine]diammonium salt] |  |  |  | 10.1 to 100 |  | 
8 | Nc1nc2c(ncn2[C@@H]2O[C@@H]3CO[P@@](=O)(S)O[C@H]4C[C@H](n5cnc6c(N)nc(Cl)nc65)O[C@@H]4CO[P@@](=O)(S)O[C@@H]2[C@@H]3O)c(=O)[nH]1 [CDN-4, (2',3')-cyclo-(Rp,Rp)-[2'-O-thiophosphodiester-guanosine]-[3'-O-thiophosphodiester-2-chloro-2'-deoxy-adenosine]diammonium salt] | 1 to 10 | particularly significant inhibitory ability | significant STING agonist activity | 1 to 10 | 75.3 | 
9 | Nc1nc(Cl)nc2c1ncn2[C@@H]1O[C@H](CO)[C@@H](O)[C@@H]1F [Clofarabine, clofarabine, reference compound] |  |  |  |  |  | IC50 [1, 13]: < 1 µM
10 | Nc1nc(Cl)nc2c1ncn2[C@H]1C[C@H](O)[C@@H](CO)O1 [Cladribine, cladribine, reference compound] |  |  |  |  |  | IC50 [1, 13]: < 1 µM
11 | (3',3')-cyclo-(Rp,Rp)-[3'-O-thiophosphodiester-guanosine]-[3'-O-thiophosphodiester-2-chloro-2'-deoxy-adenosine]diammonium salt [CDN-6] |  | particularly significant inhibitory ability | significant STING agonist activity |  | 67.4 | tumor growth inhibition rate [4]: 99.5%; IC50 ([1]; 120 hours incubation, CellTiter-Glo): 1 to 10 µM; EC50 [2, 14]: 1 to 10 µM
12 | (2',3')-cyclo-(Rp,Rp)-[2'-O-dithiophosphodiester-guanosine]-[3'-O-dithiophosphate diester -2-amino-3-methoxy-adenosine]diammonium salt [CDN-1] |  | particularly significant inhibitory ability |  |  |  | EC50 [2, 14]: 10.1 to 100 µM
13 | Nc1nc2c(ncn2[C@@H]2O[C@@H]3CO[P@@](=O)(S)O[C@H]4[C@H](F)[C@H](n5cnc6c(N)nc(Cl)nc65)O[C@@H]4CO[P@@](=O)(S)O[C@H]3[C@H]2O)c(=O)[nH]1 [CDN-5, (3',3')-cyclo-(Rp,Rp)-[3'-O-thiophosphodiester-guanosine]-[3'-O-thiophosphodiester-2-chloro-2'-deoxy-2'-fluoro-beta-adenosine]diammonium salt] | 1 to 10 | particularly significant inhibitory ability | significant STING agonist activity | 1 to 10 | 71.7 | 

Reference: patent EP4653017A1, “ANTIBODY-DRUG CONJUGATE AND USE THEREOF” (Tyligand Bioscience (Shanghai) Limited, priority 2023, dated 2024)
